This note sets out measurements from ChEMBL document CHEMBL5126517, “Structure-Activity Relationship in the Leucettine Family of Kinase Inhibitors” (J Med Chem, 2022).

The structures appear in SMILES notation. Where only a bound is given, the exact number is not on record here.

The target in data set [1] is Glycogen synthase kinase-3 (Sus scrofa, UniProt B2LUN4+I6LNT8). Kind of data set: Inhibition of porcine brain GSK-3alpha/beta using YRRAAVPPSPSLSRHSSPHQpSEDEEE as substrate incubated for 30 mins in presence of ATP by scintillation counting method. The format is tissue-based.
The target in data set [2] is Dual specificity protein kinase CLK4 (Mus musculus, UniProt O35493). As to the kind of experiment: Inhibition of GST-fused mouse recombinant CLK4 expressed in Escherichia coli using GRSRSRSRSRSR peptide as substrate incubated for 30 mins in presence of ATP by scintillation counting method.
Sequence of Dual specificity protein kinase CLK4 (O35493 whole entry, the tested form may be a part): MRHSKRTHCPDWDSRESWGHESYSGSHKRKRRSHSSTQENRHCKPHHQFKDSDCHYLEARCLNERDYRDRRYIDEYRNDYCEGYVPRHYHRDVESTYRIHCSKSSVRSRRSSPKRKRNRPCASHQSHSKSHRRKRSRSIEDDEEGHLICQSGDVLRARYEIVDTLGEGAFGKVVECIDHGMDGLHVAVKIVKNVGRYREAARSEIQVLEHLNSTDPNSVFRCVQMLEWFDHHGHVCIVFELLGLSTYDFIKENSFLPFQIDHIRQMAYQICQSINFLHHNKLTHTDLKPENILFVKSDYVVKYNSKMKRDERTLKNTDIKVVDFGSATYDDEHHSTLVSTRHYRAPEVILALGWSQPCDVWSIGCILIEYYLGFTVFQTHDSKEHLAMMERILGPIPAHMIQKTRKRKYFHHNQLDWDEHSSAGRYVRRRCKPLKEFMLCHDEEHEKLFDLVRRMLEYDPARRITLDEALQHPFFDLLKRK
Data set [3] addresses Dual specificity protein kinase CLK3 (Mus musculus, UniProt O35492). Kind of data set: Inhibition of GST-fused mouse recombinant CLK3 expressed in Escherichia coli using GRSRSRSRSRSR peptide as substrate incubated for 30 mins in presence of ATP by scintillation counting method.
Data set [4] addresses Dual specificity protein kinase CLK1 (Mus musculus, UniProt P22518). As to the kind of experiment: Inhibition of GST-fused mouse recombinant CLK1 expressed in Escherichia coli using GRSRSRSRSRSR peptide as substrate incubated for 30 mins in presence of ATP by scintillation counting method.
Data set [5] concerns the target Dual specificity protein kinase CLK2 (Mus musculus, UniProt O35491). As to the kind of experiment: Inhibition of mouse recombinant GST-fused CLK2 expressed in Escherichia coli using GRSRSRSRSRSR peptide as substrate incubated for 30 mins in presence of ATP by scintillation counting method.
In data set [6] the target is Dual specificity tyrosine-phosphorylation-regulated kinase 1A (Homo sapiens, UniProt Q13627). As to the kind of experiment: Inhibition of GST-fused human recombinant DYRK1A expressed in Escherichia coli using GRSRSRSRSRSR peptide as substrate incubated for 30 mins in presence of ATP by scintillation counting method.
In data set [7] the target is Dual specificity tyrosine-phosphorylation-regulated kinase 1B (Homo sapiens, UniProt Q9Y463).
Sequence of Dual specificity tyrosine-phosphorylation-regulated kinase 1B (Q9Y463 whole entry): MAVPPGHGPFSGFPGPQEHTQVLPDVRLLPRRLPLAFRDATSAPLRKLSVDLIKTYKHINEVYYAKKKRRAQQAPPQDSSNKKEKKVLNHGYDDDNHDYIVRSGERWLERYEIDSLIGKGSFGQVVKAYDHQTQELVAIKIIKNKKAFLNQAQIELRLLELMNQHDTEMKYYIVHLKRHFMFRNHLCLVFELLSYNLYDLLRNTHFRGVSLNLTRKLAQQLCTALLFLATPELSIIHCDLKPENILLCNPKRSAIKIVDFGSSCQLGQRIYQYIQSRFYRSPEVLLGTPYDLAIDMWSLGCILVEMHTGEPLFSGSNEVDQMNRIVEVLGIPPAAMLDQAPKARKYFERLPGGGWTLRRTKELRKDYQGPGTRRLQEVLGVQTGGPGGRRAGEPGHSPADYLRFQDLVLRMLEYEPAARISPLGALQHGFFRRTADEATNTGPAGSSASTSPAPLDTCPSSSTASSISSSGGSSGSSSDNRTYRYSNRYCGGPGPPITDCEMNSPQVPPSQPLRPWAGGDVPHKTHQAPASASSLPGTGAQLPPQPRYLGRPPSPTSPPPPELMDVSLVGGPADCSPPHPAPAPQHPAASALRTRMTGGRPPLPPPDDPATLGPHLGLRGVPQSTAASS
Data set [8] concerns the target T1, Dual specificity tyrosine-phosphorylation-regulated kinase 2 (Homo sapiens, UniProt Q92630).
T1 sequence (Q92630 whole entry): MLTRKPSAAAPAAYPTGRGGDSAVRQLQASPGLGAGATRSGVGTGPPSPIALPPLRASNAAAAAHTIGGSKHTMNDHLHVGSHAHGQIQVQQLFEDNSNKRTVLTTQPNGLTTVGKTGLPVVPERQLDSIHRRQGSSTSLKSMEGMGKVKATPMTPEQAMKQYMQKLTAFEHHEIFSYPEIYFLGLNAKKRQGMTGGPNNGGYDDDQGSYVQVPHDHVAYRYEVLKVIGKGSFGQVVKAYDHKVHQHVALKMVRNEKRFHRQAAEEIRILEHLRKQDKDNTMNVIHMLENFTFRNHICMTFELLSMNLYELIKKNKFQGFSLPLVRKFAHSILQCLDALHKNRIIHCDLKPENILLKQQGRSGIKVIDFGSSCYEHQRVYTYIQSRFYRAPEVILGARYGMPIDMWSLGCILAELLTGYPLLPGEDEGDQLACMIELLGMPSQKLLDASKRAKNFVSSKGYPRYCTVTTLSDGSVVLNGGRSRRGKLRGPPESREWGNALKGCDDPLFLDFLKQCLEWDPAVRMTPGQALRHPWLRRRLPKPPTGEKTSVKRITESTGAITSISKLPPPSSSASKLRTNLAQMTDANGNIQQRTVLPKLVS
As to the kind of experiment: Inhibition of GST-fused human recombinant DYRK2 expressed in Escherichia coli using GRSRSRSRSRSR peptide as substrate incubated for 30 mins in presence of ATP by scintillation counting method.

In data set [9] the target is T2, Dual specificity tyrosine-phosphorylation-regulated kinase 3 (Homo sapiens, UniProt O43781).
T2 sequence (O43781 whole entry): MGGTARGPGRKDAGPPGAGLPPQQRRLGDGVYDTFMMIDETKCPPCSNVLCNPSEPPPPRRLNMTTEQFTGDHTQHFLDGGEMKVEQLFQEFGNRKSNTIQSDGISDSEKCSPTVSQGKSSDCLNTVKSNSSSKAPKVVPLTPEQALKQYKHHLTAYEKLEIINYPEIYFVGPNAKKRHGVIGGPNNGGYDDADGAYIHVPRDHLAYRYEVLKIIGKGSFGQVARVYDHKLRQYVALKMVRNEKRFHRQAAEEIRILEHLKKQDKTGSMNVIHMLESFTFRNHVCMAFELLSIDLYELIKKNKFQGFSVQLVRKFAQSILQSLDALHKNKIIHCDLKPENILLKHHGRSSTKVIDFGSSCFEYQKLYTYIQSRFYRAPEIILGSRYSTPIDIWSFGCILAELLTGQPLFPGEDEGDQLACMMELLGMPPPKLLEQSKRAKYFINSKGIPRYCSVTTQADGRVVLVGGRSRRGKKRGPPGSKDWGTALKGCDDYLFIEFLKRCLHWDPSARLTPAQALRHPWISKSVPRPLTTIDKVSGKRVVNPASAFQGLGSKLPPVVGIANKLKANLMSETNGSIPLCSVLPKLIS
As to the kind of experiment: Inhibition of GST-fused human recombinant DYRK3 expressed in Escherichia coli using GRSRSRSRSRSR peptide as substrate incubated for 30 mins in presence of ATP by scintillation counting method.

The target of data set [10] is Serine/threonine-protein kinase pim-1 (Homo sapiens, UniProt P11309). As to the kind of experiment: Inhibition of human recombinant Pim1 expressed in Escherichia coli using histone H1 as substrate incubated for 30 mins in presence of ATP by scintillation counting method.
Sequence of Serine/threonine-protein kinase pim-1 (P11309 whole entry): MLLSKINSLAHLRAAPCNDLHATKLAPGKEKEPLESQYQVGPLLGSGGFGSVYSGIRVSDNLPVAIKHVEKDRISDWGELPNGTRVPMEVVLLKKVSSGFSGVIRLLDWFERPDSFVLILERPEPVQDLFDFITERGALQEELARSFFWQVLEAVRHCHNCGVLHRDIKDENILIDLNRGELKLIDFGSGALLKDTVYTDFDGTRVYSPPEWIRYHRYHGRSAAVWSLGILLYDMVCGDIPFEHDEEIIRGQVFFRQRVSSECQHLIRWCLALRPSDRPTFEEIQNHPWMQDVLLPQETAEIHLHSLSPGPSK
Data set [11] concerns the target Casein kinase 2 (Homo sapiens, UniProt P67870+P68400+P19784+Q8NEV1). As to the kind of experiment: Inhibition of human recombinant CK2 using RRRDDDSDDD peptide as substrate incubated for 30 mins in presence of ATP by scintillation counting method. The data set is classed as protein assay.
In data set [12] the test system is HT-22. As to the kind of experiment: Neuroprotective activity against glutamate-induced cell death in mouse HT-22 cells treated for 24 hrs by MTS assay. The data set is classed as functional, cell-based. The conditions noted are these: HT-22, 24 h. For orientation: Tetrazolium dyes change colour on reduction, which living cells bring about.
Data set [13] relates to U2OS. As to the kind of experiment: Induction of PI3K/mTor-dependent autophagy in human U2OS cells assessed as number of LC3 foci per cell at 10 uM measured after 4 hrs. The format is cell-based. The conditions noted are these: filed as activator.
The target in data set [14] is Cannabinoid receptor 1 (Homo sapiens, UniProt P21554). Kind of data set: Antagonist activity at CP-55940-activated CB1 receptor (unknown origin) at 10 uM by beta-arrestin assay relative to control. The data set is classed as functional. On the set-up: scale not given: the % may be the effect or the level left.
Sequence of Cannabinoid receptor 1 (P21554 whole entry): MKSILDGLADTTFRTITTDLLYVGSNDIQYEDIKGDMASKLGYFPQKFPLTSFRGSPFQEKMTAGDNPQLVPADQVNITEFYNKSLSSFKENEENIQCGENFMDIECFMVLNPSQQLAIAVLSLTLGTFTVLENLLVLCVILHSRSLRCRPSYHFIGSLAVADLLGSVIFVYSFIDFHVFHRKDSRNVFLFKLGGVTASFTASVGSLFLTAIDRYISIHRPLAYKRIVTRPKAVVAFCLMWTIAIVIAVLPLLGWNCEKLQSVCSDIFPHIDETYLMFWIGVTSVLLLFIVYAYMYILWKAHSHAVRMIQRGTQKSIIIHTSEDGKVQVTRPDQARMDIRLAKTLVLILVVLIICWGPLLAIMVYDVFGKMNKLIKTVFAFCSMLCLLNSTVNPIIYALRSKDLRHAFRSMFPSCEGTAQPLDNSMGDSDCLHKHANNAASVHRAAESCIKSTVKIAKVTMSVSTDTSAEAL
Data set [15] is described as follows: Neurotoxicity against mouse HT-22 cells assessed as cell survival at 20 uM treated for 24 hrs by MTS assay. The format is toxicity, cell-based. The conditions noted are these: ht-22, 24 h.

Sequence of Dual specificity protein kinase CLK1 (P22518 whole entry, the tested form may be a part): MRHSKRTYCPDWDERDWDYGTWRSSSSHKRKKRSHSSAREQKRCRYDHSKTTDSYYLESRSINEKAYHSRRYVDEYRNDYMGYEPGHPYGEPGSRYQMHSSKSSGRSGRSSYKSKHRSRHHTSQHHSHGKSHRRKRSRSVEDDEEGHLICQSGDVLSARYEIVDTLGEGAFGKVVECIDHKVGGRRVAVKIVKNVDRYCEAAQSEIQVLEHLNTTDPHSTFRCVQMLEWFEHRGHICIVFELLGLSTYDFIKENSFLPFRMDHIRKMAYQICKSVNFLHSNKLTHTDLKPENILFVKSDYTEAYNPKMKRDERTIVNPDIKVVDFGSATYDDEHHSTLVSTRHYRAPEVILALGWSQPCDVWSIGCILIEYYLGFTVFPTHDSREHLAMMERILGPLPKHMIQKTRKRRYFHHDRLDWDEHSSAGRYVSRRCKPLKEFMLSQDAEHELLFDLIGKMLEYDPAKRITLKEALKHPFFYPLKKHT
Sequence of Dual specificity protein kinase CLK3 (O35492 whole entry, the tested form may be a part): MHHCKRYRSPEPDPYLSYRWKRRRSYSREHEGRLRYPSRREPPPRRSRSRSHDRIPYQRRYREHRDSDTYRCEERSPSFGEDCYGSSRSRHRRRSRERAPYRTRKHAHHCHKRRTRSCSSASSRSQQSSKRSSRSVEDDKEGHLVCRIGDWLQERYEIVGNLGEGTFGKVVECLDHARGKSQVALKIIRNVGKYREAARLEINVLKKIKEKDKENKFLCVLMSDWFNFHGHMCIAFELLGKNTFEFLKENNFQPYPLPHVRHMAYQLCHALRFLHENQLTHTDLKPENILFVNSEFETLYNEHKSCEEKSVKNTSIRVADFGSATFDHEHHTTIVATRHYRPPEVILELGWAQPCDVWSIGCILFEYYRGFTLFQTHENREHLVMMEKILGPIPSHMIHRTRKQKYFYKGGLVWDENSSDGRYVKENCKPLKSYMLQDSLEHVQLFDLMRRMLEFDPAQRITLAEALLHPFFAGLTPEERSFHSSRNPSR
Sequence of Dual specificity protein kinase CLK2 (O35491 whole entry, the tested form may be a part): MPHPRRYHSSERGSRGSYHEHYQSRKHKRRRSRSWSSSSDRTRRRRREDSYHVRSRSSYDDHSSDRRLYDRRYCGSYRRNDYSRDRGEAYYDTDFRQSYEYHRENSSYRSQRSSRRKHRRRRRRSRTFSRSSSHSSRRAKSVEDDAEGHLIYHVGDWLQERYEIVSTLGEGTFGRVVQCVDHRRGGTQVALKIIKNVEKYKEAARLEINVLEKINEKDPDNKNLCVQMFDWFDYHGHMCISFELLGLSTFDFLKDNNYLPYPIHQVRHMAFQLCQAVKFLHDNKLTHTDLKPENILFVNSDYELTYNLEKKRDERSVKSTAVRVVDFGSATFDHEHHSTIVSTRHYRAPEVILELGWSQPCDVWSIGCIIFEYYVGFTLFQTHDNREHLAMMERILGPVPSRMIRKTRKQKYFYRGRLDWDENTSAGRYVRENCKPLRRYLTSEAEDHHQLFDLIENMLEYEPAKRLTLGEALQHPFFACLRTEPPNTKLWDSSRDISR

As usually defined, the IC50 is the point on the concentration scale where inhibition reaches its midpoint. Broadly, the EC50 is the concentration needed to bring the measured effect to its halfway point. With `O=C1NC(Nc2ccccc2)=N/C1=C\c1ccc2c(c1)OCCO2`, the IC50 was determined as 2000 nM in data set [1]; 140 nM in data set [2]; 2400 nM in data set [3]; 130 nM in data set [4]; 880 nM in data set [5]; 76 nM in [6]. For the same molecule, the IC50 in data set [7] came out at 250 nM; in data set [8], 92 nM; in data set [9], 420 nM; in data set [10] it was 1000 nM; in data set [11], 970 nM. Besides, a half-maximal effect in data set [12] (EC50) was put at 10000 nM. Moreover, the Activity was 6.6 in [13], 96.3% in [14] (filed as antagonist) and “Non-Toxic” in data set [15].

Turning to `O=C1NC(Nc2ccc(F)cc2)=N/C1=C\c1ccc2c(c1)OCO2`, the IC50 was 8800 nM in data set [1]; 50 nM in [2]; above 10000 nM in data set [3]; 62 nM in data set [4]; 260 nM in data set [5]; 28 nM in data set [6]. In addition, the IC50 in data set [7] was 100 nM; in [8], 35 nM; in [9], 930 nM; in data set [10] it was 9300 nM; in data set [11], 8800 nM. This molecule gave an EC50 in data set [12] of 3600 nM. For the same molecule, the Activity in [13] is 4.9; in data set [14] (filed as antagonist) it was 76.4%; in data set [15], “Non-Toxic”.

As to `O=C1NC(Nc2ccc(O)c(F)c2)=N/C1=C\c1ccc2c(c1)OCO2`, the IC50 in data set [1] was found to be 550 nM; in [2], 19 nM; in data set [3], 400 nM; in data set [4], 16 nM; in data set [5] it was 120 nM; in data set [6], 12 nM. In addition, the IC50 in data set [7] came to 23 nM; in data set [8], 11 nM; in data set [9], 170 nM; in data set [10] it was 610 nM; in data set [11], 320 nM. The molecule also yielded an EC50 in data set [12] of 13000 nM. Besides, the figures for the Activity in data set [13], in data set [14] and in data set [15] were 18.2, -5.6% and “Non-Toxic”, respectively.

In the case of `O=C1NC(Nc2ccccc2)=N/C1=C\c1ccc(O)c(O)c1`, the IC50 came out at 1200 nM in data set [1]; 130 nM in data set [2]; 2300 nM in data set [3]; 210 nM in [4]; 1500 nM in data set [5]; 150 nM in data set [6]. Besides, the IC50 in [7] turned out to be 320 nM; in data set [8] it was 270 nM; in data set [9], 1200 nM; in data set [10] it was 840 nM; in [11] it was 1500 nM. This molecule also showed an EC50 in data set [12] of 3300 nM. Besides, the Activity in data set [13] was 10.1; in data set [14], -22.3%; in [15] it was “Non-Toxic”.

For the molecule `O=C1NC(Nc2ccc(N3CCNCC3)cc2)=N/C1=C\c1ccc2c(c1)OC=CO2`, the IC50 was 4600 nM in data set [1]; 640 nM in [2]; above 10000 nM in data set [3]; 1100 nM in data set [4]; 2300 nM in data set [5]; 530 nM in data set [6]. In addition, the IC50 came to 1400 nM in data set [7]; 350 nM in data set [8]; 1100 nM in data set [9]; 5400 nM in data set [10]; 3000 nM in data set [11]. The molecule also showed an EC50 in data set [12] of 1250 nM. In addition, the Activity was 7.3 in [13], -20% in data set [14] and “Non-Toxic” in [15].

For the molecule `Cc1ccc(C)c(NC2=N/C(=C\c3ccc4c(c3)OCO4)C(=O)N2)c1`, the IC50 in data set [1] was 10000 nM; in data set [2], 23 nM; in [3], 3500 nM; in [4], 50 nM; in [5], 180 nM; in data set [6], 24 nM. For the same molecule, the IC50 in [7] was 92 nM; in data set [8], 22 nM; in data set [9], 800 nM; in data set [10] it was 7700 nM; in data set [11], 1600 nM. In addition, in [12], the EC50 was 7000 nM. Moreover, the Activity in data set [13] is 26; in data set [14], 10.8%; in data set [15], “Non-Toxic”.
